Experimental data taken from patent US20260083704A1, “LXR MODULATORS WITH BICYCLIC CORE MOIETY FOR TREATING DYSLIPIDEMIAS” (OrsoBio, Inc., priority 2022, published 2026).
Entries after “also recorded” stand apart in the source; their conditions may differ.

Experiments:
[1] = test system: humanized liver chimeric PXB mice; assay: Humanized liver chimeric PXB mouse model; assay type: in vivo; conditions: 1 mg/kg once daily oral, 8 days
Protocol: Data are shown as mean±SD. N=4-5 animals per group. *p≤0.05, **p≤0.01, ***p≤0.001, ****p≤0.0001 Mann-Whitney test.
Since features of cholesterol metabolism differ between rodents and humans, the humanized liver chimeric PXB® mouse model was utilized to further explore the effects of Compound 21/3 on lipid metabolism in a more relevant nonclinical model (Tateno, Yoshizane et al. 2004). Briefly, PXB mice were treated with either vehicle or Compound 21/3 (1 mg/kg once daily by oral gavage) for 8 days. The pharmacokinetics (PK) data from this study are presented herein. […] Specifically, Compound 21/3 reduced the expression of the cholesterol synthesis gene, HMGCR, as well as in genes that reduce the hepatic uptake of LDL-C (PCSK9, IDOL) and conversion of cholesterol to bile acids (CYP7A1). As expected, marked reductions in ANGPTL3 and DNL-associated genes (SREBP1C, ACACA, FASN, SCD1) were also observed.

healthy subjects = assay: Phase 1 study, SAD cohorts: safety and tolerability; assay type: in vivo, human; conditions: range over dose groups
Protocol: A double-blind, placebo-controlled, single- and multiple-ascending dose FIH Phase 1 study to evaluate the safety, tolerability, PK, and PD of Compound 21/3 in healthy adult subjects was performed. A total of up to 150 subjects were enrolled, including 100 subjects in Parts A and B, and up to 50 subjects in adaptive cohorts in Part C. Within each cohort, 10 subjects were randomized, including 8 subjects randomized to Compound 21/3 and 2 subjects to PTM (placebo-to-match). In single-dose cohorts in Parts A and in any Part C cohort evaluating a higher total daily dose than previously evaluated, safety and tolerability data collected through Day 2 from two sentinel subjects, one randomized to Compound 21/3 and one to PTM, were evaluated prior to dosing of the remaining subjects in each cohort.
An approximately even distribution of healthy male and non-pregnant, non-lactating female subjects 18 to 55 years of age, inclusive, were to be enrolled in the study. There were no significant medical conditions by history, physical examination, or laboratory evaluation. Subjects were not allowed to participate in more than one cohort of the study. Within each MAD cohort, attempts were made to enrich for >3 subjects with elevated TG and/or LDL-C. Following the completion of Screening and admission assessments, eligible subjects were to be enrolled on Day −1. […]

ApoC3 and ANGPTL3 = assay: Phase 1 study, MAD cohorts: plasma ApoC3 and ANGPTL3 by ELISA; assay type: in vivo, human; conditions: healthy subjects, Day 1 to Day 14, 12 h postdose
Protocol: (§1) Lipid parameters, including apolipoprotein B (apoB), were evaluated by NMR LipoProfile® (Labcorp, Burlington, NC. Plasma ApoC3 and ANGPTL3 were evaluated by ELISA (360biolabs, Melbourne, Australia). Peripheral RCT (reverse cholesterol transport) were evaluated by assessing changes in expression of ABCA1/ABCG1 in PBMCs, predose and 4 hours postdose on Days 1 and 14 (Gnomix, Bedford Park, Australia).
(§2) In FIG. 14A to 14C, ApoC3 and ANGPTL3 measured 12 h postdose. RCT assessed predose and 4 h postdose on Day 14.

ABCA1/ABCG1 in PBMCs = assay: Phase 1 study, MAD cohorts: expression of ABCA1/ABCG1 in PBMCs (peripheral RCT); assay type: in vivo, human; conditions: healthy subjects, predose and 4 h postdose on Day 14
Protocol: as §1, §2

DIO mice = assay: Two-step hyperinsulinemic-euglycemic clamp in DIO mice; assay type: in vivo; conditions: 5 mg/kg once daily oral
Text: Data are shown as mean±SD. N=5-11 animals per group. *p≤0.05, **p≤0.01, ***p≤0.001, ****p≤0.0001 vs. vehicle, unless otherwise indicated; ^#p≤0.05 pioglitazone vs. vehicle. Repeated measures Two-way ANOVA with Dunnett's multiple comparisons test (FIG. 7A, FIG. 7D), Two-way ANOVA with Dunnett's multiple comparisons test (FIG. 7B, FIG. 7C). EDL=extensor digitorum longus, GIR=glucose infusion rate, HGP=hepatic glucose production, iWAT=inguinal white adipose tissue.
The effects of chronic dosing of Compound 21/3 and Compound pre-6/3 were evaluated in DIO mice and HFD-fed ZDF rats, respectively. Briefly, C57BL/6 mice were fed a HFD for 16 weeks prior to treatment with Compound pre-6/3 (5 mg/kg) or pioglitazone (30 mg/kg; positive control) once daily by oral gavage. After four weeks of treatment, a two-step hyperinsulinemic-euglycemic clamp along with the infusion of radiotracers to monitor glucose disposal and hepatic glucose production was performed. […] These changes were associated with a reduction in hepatic glucose production in the Compound pre-6/3-treated mice, more evident during the 8 mU/kg/min insulin infusion (FIG. 7B).

[2] = test system: CDHFD/sodium nitrate-treated Wistar Han rats; assay: CDHFD/sodium nitrate rat model of NASH with advanced fibrosis; assay type: in vivo; conditions: 5 mg/kg once daily oral
Text: Data are shown as mean±SD. N=7-8 animals per group. *p≤0.05, **p≤0.01, ***p≤0.001, ****p≤0.0001 Mann-Whitney test.
The CDHFD model of NASH is characterized by reduced phosphatidylcholine synthesis in the liver and impaired TG secretion in VLDL particles, which results in hepatic lipid accumulation, inflammation, oxidative stress, and severe fibrosis. Liver injury in CDHFD-fed rats can be exacerbated by further inducing hypoxia using sodium nitrate (Takayama, Egashira et al. 2009). Wistar Han rats were treated with CDHFD/sodium nitrate for a total of 12 weeks and dosed with Compound pre-6/3 (5 mg/kg once daily by oral gavage) from Weeks 6 to 12. […] Moreover, compared with vehicle treatment, Compound pre-6/3 decreased hepatic hydroxyproline and collagen content by 64% (p≤0.001) and 50% (p≤0.001), respectively (FIG. 8B-C).

| SMILES | hepatic TG and TC content [1] | hepatic expression of genes involved in the metabolism of cholesterol and TG ([1]; relative to vehicle) | proportion of subjects with adverse events (AEs) (healthy subjects) | plasma ApoC3 and ANGPTL3 (ApoC3 and ANGPTL3) | peripheral RCT: expression of LXR target genes in PBMCs incl. ABCA1/ABCG1 (ABCA1/ABCG1 in PBMCs) | glucose utilization by muscle versus vehicle (DIO mice; end of the clamp) | glucose infusion rate versus vehicle (DIO mice; four weeks, insulin infusion 8 and 18 mU/kg/min) | hepatic glucose production (DIO mice; four weeks, more evident at 8 mU/kg/min) | fibrosis (picrosirus red staining) ([2]; Weeks 6 to 12) | hepatic expression of DNL genes (Srebp1c, Scd1, Fasn) and fibrogenesis genes (Timp1, Col1a1, Acta2) ([2]; Weeks 6 to 12) | liver TG content ([2]; Weeks 6 to 12) | decrease of hepatic collagen content compared with vehicle ([2]; Weeks 6 to 12, p≤0.001) [%] | decrease of hepatic hydroxyproline content compared with vehicle ([2]; Weeks 6 to 12, p≤0.001) [%] |
| --- | --- | --- | --- | --- | --- | --- | --- | --- | --- | --- | --- | --- | --- |
| N#Cc1cccc(C#N)c1-c1c(-c2cccc(-c3ccc(C(=O)NCC(=O)O)cc3Cl)c2)n(S(=O)(=O)c2ccc(C(F)F)cc2)c2ccc(F)cc12 [Compound 21/3] | trended to reduce | significantly reduced | 13-50% | reduces | does not impact; also recorded: did not impact | – | – | – | – | – | – | – | – |
| N#Cc1cccc(C#N)c1-c1c(-c2cccc(-c3ccc(C(=O)O)cc3Cl)c2)n(S(=O)(=O)c2ccc(C(F)F)cc2)c2ccc(F)cc12 [pre-6/3] | – | – | – | – | – | significantly higher | significantly higher | reduction | significantly decreased | decreased | decreased | 50 | 64 |
